Data as given in US10273279B2, “Protease activated receptor-1 (PAR1) derived cytoprotective polypeptides and related methods” (THE SCRIPPS RESEARCH INSTITUTE, priority 2011, dated 2019).

Assays:
[1] = test system: Akt phosphorylation at Ser473 in EA.hy.926 human endothelial cells; assay: Akt Ser473 phosphorylation in EA.hy.926 endothelial cells (in-cell Western); format: cell-based; details: for Ser473-Akt phosphorylation (activation of Akt): Example 7, under the employed experimental conditions; for pSer473-Akt (Akt phosphorylation): 0, 5 or 30 min, TFLL 50 μM, NPND 250 μM, scr-NPND 250 μM
Text: (§1) Activated Protein C (APC) cleaves a synthetic PAR1 tail peptide at Arg^41 and Arg^46; furthermore, APC cleaves SEAP-PAR1 mutants with the mutations R41A or R41Q but not SEAP-PAR1 with both R41Q/R46Q mutations. […] It was thus hypothesized that a new PAR1 N-terminus beginning at residue Asn-47 promotes PAR1 signaling and APC cytoprotective activities. Since phosphorylation of signaling network components is useful for monitoring activation of signaling pathways, the effects of synthetic PAR1 peptides on Akt and ERK1/2 phosphorylation in EA.hy.926 human endothelial cells were studied. Cells were treated for 0, 5 or 30 min with peptides prior to cell fixation, permeabilization of cells and subsequent immunoblotting analysis (“in-cell Western blotting”). Relative phosphorylation of Akt at Ser^473 (pSer^473-Akt) or of ERK1/2 at Thr202/204 (pERK1/2) in endothelial cells was quantified using the LI-COR Odyssey infrared (IR) fluorescence imaging system which permits “in cell” Western blots. The Odyssey permits simultaneous quantification of different antibodies that yield either red or green signals.
(§2) Methods: EA.hy.926 cells (ATCC: CRL-2922) were grown in black clear bottom 96 well plates (Nunc) in DMEM (Invitrogen #12430) supplemented with glutamax (Invitrogen #35050) and 10% FBS (Hyclone #35-011-CV) in a 37° C. cell incubator with a humidified atmosphere and 5% CO2 in air until confluency. Cells were treated for 0, 5 or 30 min with PAR1 peptides TFLL (50 μM), NPND (250 μM) or scr-NPND (250 μM) or with vehicle in serum free media. Subsequently cells were fixed with methanol free 4% para-formaldehyde (Pierce), washed with phosphate buffered saline (PBS; Invitrogen) containing 1% triton X-100 and blocked with Odyssey blocking buffer (Licor). Cells were incubated with rabbit anti-pT202/Y204 ERK1/2 (1/1000; Cell signaling D13.14.4E) or rabbit anti-pSer^473 (1/100; cell signaling D9E) with Odyssey blocking buffer. After washing with PBS/0.1% Tween (1/800), IRDye 800CW-labelled secondary goat anti-rabbit antibodies (Licor) were added to the cells in Odyssey blocking buffer and 1/10,000 Draq5 (Biostatus) for cell normalization. After final washing with PBS/0.1% Tween IR, the fluorescence of bound antibodies was determined using the Odyssey (Licor). Background fluorescence was determined by omitting the primary antibody and subtracting values for controls from all other observed values.

[2] = test system: ERK1/2 phosphorylation in EAhy926 endothelial cells; assay: ERK1/2 phosphorylation in EA.hy.926 endothelial cells, Western blot of lysates (LI-COR Odyssey); format: cell-based, human; details: 5 min; 10 nM APC or thrombin, 10 μM TFLL peptide, 50 μM TR47-66 or scr-TR47-66
Experimental: To assess whether PAR1 cleaved at Arg^46 would generate a PAR1 N-terminus that is capable of promoting PAR1 signaling, we studied the effects of synthetic peptides on ERK1/2 phosphorylation in EAhy926 endothelial cells. […] Relative phosphorylation of ERK1/2 was determined using the LI-COR Odyssey infrared imaging system which permits quantitative analysis over a wide dynamic range.
In this figure (left), anti-pT202Y204-ERK1/2 antibodies appear green while total anti-ERK1/2 antibodies appear red, and orange intensity reflects overlaps. […] The signal for phosphorylated ERK1/2 (green channel) was normalized to the signal for total ERK1/2 antigen (red channel) to quantify relative phosphorylation as a ratio, and the results are seen in the bar graph. […] The control scr-TR47-66 peptide (scrambled residues 47-66) caused no increase.
Methods: EA.hy.926 cells (ATCC; CRL-2922) were grown in 6-well plates in DMEM (Invitrogen #12430) supplemented with glutamax (Invitrogen #35050) and 10% FBS (Hyclone #35-011-CV) in a 37° C. cell incubator with a humidified atmosphere and 5% CO2 in air until confluency. […] Subsequently cells were resuspended in lysis buffer with protein and phosphatase inhibitors, cell lysates were applied to SDS-PAGE gel electrophoresis on 10% Bis-Tris gels with MOPS running buffer (Invitrogen) and transferred to PVDF membrane (Millipore) for Western blot analysis. Blots were blocked in Odyssey blocking buffer (Licor) and incubated with a combination of mouse anti-ERK1/2 (1/2000; Cell Signaling #3A7) and rabbit anti-pT202/204 ERK1/2 (1/1000; cell signaling #D13.14.4E) antibodies in Odyssey blocking buffer (Licor). After washing, blots were incubated with RDye680-labeled donkey anti-mouse (1/10,000; Licor) and IRDye800CW-labeled donkey anti-rabbit (1/10,000), washed again with PBS/0.1% Tween and IR fluorescence of bound antibodies was determined using the Odyssey (Licor).

[3] = test system: ERK1/2 phosphorylation at Thr202/204 in EA.hy.926 human endothelial cells; assay: ERK1/2 phosphorylation in EA.hy.926 endothelial cells (in-cell Western); format: cell-based; details: for activation of ERK1/2: Example 7; for ERK1/2 phosphorylation (pERK1/2): 0, 5 or 30 min, TFLL 50 μM, NPND 250 μM, scr-NPND 250 μM
Text: as §1, §2

[4] = test system: glycogen synthase kinase 3β (GSK3β) phosphorylation at Ser9; assay: GSK3β Ser9 phosphorylation in endothelial cells; format: cell-based, human; details: for Ser9-GSK3β phosphorylation: Example 6
Experimental: To further confirm activation of Akt by the TR47-66 peptide, Akt-mediated inactivation of glycogen synthase kinase 3β (GSK3β) via phosphorylation at Ser9 was determined. GSK3β is a well-known downstream substrate for Akt.

[5] = test system: EA.hy.926 endothelial cells; assay: Staurosporine-induced endothelial cell apoptosis (Apopercentage dye); format: cell-based, human; details: 4 hrs pretreatment, 50 μM NPND, 50 μM scr-NPND or 10 μM TFLL, staurosporine 10 μM
Experimental: Activated Protein C (APC) conveys anti-apoptotic activity to EA.hy.926 cells that requires functional PAR1 receptor and APC binding to the endothelial protein C receptor (EPCR). See, e.g., Mosnier at al., Biochem J. 2003; 373:65-70; and Mosnier at al., Blood. 2007; 109:3161-3172.
Methods: EA.hy.926 cells (ATCC: CRL-2922) were grown in 24 well plates in DMEM (Invitrogen #12430) supplemented with glutamax (Invitrogen #35050) and 10% FBS (Hyclone #35-011-CV) in a 37° C. cell incubator with a humidified atmosphere and 5% CO2 in air until confluency. Cells were treated for 4 hrs with vehicle control, 50 μM NPND, 50 μM scr-NPND or 10 μM TFLL after which staurosporine (10 μM) and the Apopercentage dye (Biocolor) were added according the manufacturer's instructions. After 1 hr cells were washed with 2×1 ml PBS and 110 μl of the dye release agent was added to the cells. Subsequently 100 μl aliquots were transferred to a black 96 well plate and fluorescence was measured (530 nm excitation/580 nm emission). Apoptosis was expressed as a percentage of cells treated with 10 mM H2O2 for which apoptosis was set at 100%.

Row | Substance | Ser473-Akt phosphorylation (activation of Akt) [1] | increase in ERK1/2 phosphorylation (phospho/total ERK1/2 ratio) [2] | activation of ERK1/2 [3] | phosphorylation of GSK3β at Ser9 ([4]; Example 7) | pSer473-Akt (Akt phosphorylation) [1] | inhibition of staurosporine-induced endothelial cell apoptosis [5] | ERK1/2 phosphorylation (pERK1/2) [3] | Ser9-GSK3β phosphorylation [4] | pSer473-Akt (Akt phosphorylation) ([1]; listed as NPND) | Akt phosphorylation at Ser473 in the presence of the PAR1 inhibitor SCH79797 ([1]; with SCH79797) | inhibition of staurosporine-induced endothelial cell apoptosis ([5]; listed as NPND-peptide)
1 | APC: Activated Protein C, serine protease with anticoagulant and cytoprotective cell signaling activities | robust activation of Akt | 1.5 fold | transient but modest activation | sustained phosphorylation |  |  |  |  |  |  | 
2 | GDENENEKPNWYELKEPDSF (scrambled sequence) [scr-TR47-66, control scrambled TR47-66 peptide containing scrambled residues 47-66, reference compound] |  | no increase |  |  | essentially no effect | did not convey detectable anti-apoptotic effects | essentially no effect | no phosphorylation |  |  | 
3 | NPNDKYEPFWEDEEKNESGL (listed as Homo sapiens) [TR47-66] | induced activation of Akt |  | failed to induce any noticeable activation |  | increased Akt phosphorylation at Ser^47 | significantly inhibited | essentially no effect | induced significant Ser9-GSK3β phosphorylation starting at 30 min | time-dependent sustained increase | failed to induce Akt phosphorylation | inhibited staurosporine-induced endothelial cell apoptosis
4 | thrombin | neither thrombin nor TRAP induced | 3 fold |  |  |  |  |  |  |  |  | 
